Target: T1, His6 tagged human recombinant FABP4 (Homo sapiens, UniProt P15090)
T1 construct: purchased Cayman Chemicals 10009549
Test: FABP4 TR-FRET assay: displacement of BODIPY FL C12 fatty acid
Settings: triplicates, inhibition of BODIPY FL C12 binding; for inhibition at 1 µM: 1 μM compound; for inhibition at 10 µM: 10 μM compound
Procedure, shortened: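 TR-FRET with a Tb anti-His6 antibody donor and BODIPY FL C12 as acceptor; compounds came from 0.362 and 0.0362 mM DMSO stocks. Protein (83 nM) and antibody (49.6 nM) solutions were premixed 30 min on ice in 25 mM Tris pH 7.4 with γ-globulins, NP-40 and DTT. Incubation was 10 min at room temperature; inhibition came from the 520/615 nm ratio.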

T1 sequence (P15090 whole entry): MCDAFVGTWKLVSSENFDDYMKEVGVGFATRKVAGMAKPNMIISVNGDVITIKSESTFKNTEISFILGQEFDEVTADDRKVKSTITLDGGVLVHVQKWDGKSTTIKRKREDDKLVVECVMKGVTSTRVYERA

Compound | inhibition at 1 µM [%] | inhibition at 10 µM [%]
CCC1CCCc2c1c1cccc(C(=O)O)c1n2Cc1cccc(C(N)=O)c1 (stereo not shown) [9-[(3-carbamoylphenyl)methyl]-4-ethyl-2,3,4,9-tetrahydro-1H-carbazole-8-carboxylic acid] | 87 | 102
CCCCCC1CCCc2c1c1cccc(C(=O)O)c1n2Cc1cccc(C(N)=O)c1 (stereo not shown) [9-[(3-carbamoylphenyl)methyl]-4-pentyl-2,3,4,9-tetrahydro-1H-carbazole-8-carboxylic acid] | 42.6 | 84.4
CCCC1CCCc2c1c1cccc(C(=O)O)c1n2Cc1cccc(C(N)=O)c1 (stereo not shown) [9-[(3-carbamoylphenyl)methyl]-4-propyl-2,3,4,9-tetrahydro-1H-carbazole-8-carboxylic acid] | 53.9 | 90
CCC1CCCc2c1n(Cc1cccc(C(=O)O)c1)c1c(C(=O)O)cccc21 (stereo not shown) [9-[(3-carboxyphenyl)methyl]-1-ethyl-2,3,4,9-tetrahydro-1H-carbazole-8-carboxylic acid] | 39.6 | 78.5
CCC1CCc2c(n(Cc3cccc(C(=O)O)c3)c3c(C(=O)O)cccc23)C1 (stereo not shown) [9-[(3-carboxyphenyl)methyl]-2-ethyl-2,3,4,9-tetrahydro-1H-carbazole-8-carboxylic acid] | 23.5 | 69.2
CCCCCCC1CCc2c(n(Cc3cccc(C(=O)O)c3)c3c(C(=O)O)cccc23)C1 (stereo not shown) [9-[(3-carboxyphenyl)methyl]-2-hexyl-2,3,4,9-tetrahydro-1H-carbazole-8-carboxylic acid] | 23.9 | 73
CCC1CCCc2c1c1cccc(C(=O)O)c1n2Cc1cccc(C(=O)O)c1 (stereo not shown) [9-[(3-carboxyphenyl)methyl]-4-ethyl-2,3,4,9-tetrahydro-1H-carbazole-8-carboxylic acid] | 52.1 | 85.4
CCCCCOC1CCCc2c1n(Cc1cccc(C#N)c1)c1c(C(=O)O)cccc21 (stereo not shown) [9-[(3-cyanophenyl)methyl]-1-(pentyloxy)-2,3,4,9-tetrahydro-1H-carbazole-8-carboxylic acid] | 7.56 | 63.3
CCC1CCCc2c1n(Cc1cccc(C#N)c1)c1c(C(=O)O)cccc21 (stereo not shown) [9-[(3-cyanophenyl)methyl]-1-ethyl-2,3,4,9-tetrahydro-1H-carbazole-8-carboxylic acid] | 44.2 | 87.6
N#Cc1cccc(Cn2c3c(c4cccc(C(=O)O)c42)CCC(CCc2ccccc2)C3)c1 (stereo not shown) [9-[(3-cyanophenyl)methyl]-2-(2-phenylethyl)-2,3,4,9-tetrahydro-1H-carbazole-8-carboxylic acid] |  | 92.3
CCCCCCC1CCc2c(n(Cc3cccc(C#N)c3)c3c(C(=O)O)cccc23)C1 (stereo not shown) [9-[(3-cyanophenyl)methyl]-2-hexyl-2,3,4,9-tetrahydro-1H-carbazole-8-carboxylic acid] | 63.6 | 83.4
CCCCCC1CCc2c(n(Cc3cccc(C#N)c3)c3c(C(=O)O)cccc23)C1 (stereo not shown) [9-[(3-cyanophenyl)methyl]-2-pentyl-2,3,4,9-tetrahydro-1H-carbazole-8-carboxylic acid] | 60.8 | 77.1
CCCC1CCc2c(n(Cc3cccc(C#N)c3)c3c(C(=O)O)cccc23)C1 (stereo not shown) [9-[(3-cyanophenyl)methyl]-2-propyl-2,3,4,9-tetrahydro-1H-carbazole-8-carboxylic acid] | 55.6 | 81.4
CCC1CCc2c(c3cccc(C(=O)O)c3n2Cc2cccc(C#N)c2)C1 (stereo not shown) [9-[(3-cyanophenyl)methyl]-3-ethyl-2,3,4,9-tetrahydro-1H-carbazole-8-carboxylic acid] | 45.8 | 90.3
CCCCCC1CCc2c(c3cccc(C(=O)O)c3n2Cc2cccc(C#N)c2)C1 (stereo not shown) [9-[(3-cyanophenyl)methyl]-3-pentyl-2,3,4,9-tetrahydro-1H-carbazole-8-carboxylic acid] | 57.4 | 83.3
CCCC1CCc2c(c3cccc(C(=O)O)c3n2Cc2cccc(C#N)c2)C1 (stereo not shown) [9-[(3-cyanophenyl)methyl]-3-propyl-2,3,4,9-tetrahydro-1H-carbazole-8-carboxylic acid] | 46.8 | 85.4
N#Cc1cccc(Cn2c3c(c4cccc(C(=O)O)c42)C(CCc2ccccc2)CCC3)c1 (stereo not shown) [9-[(3-cyanophenyl)methyl]-4-(2-phenylethyl)-2,3,4,9-tetrahydro-1H-carbazole-8-carboxylic acid] | 31 | 53.4
CCCCCC1CCCc2c1c1cccc(C(=O)O)c1n2Cc1cccc(C#N)c1 (stereo not shown) [9-[(3-cyanophenyl)methyl]-4-pentyl-2,3,4,9-tetrahydro-1H-carbazole-8-carboxylic acid] | 26.3 | 73.7
CCCCCCC1CCc2c(n(Cc3ccc(C(N)=O)cc3)c3c(C(=O)O)cccc23)C1 (stereo not shown) [9-[(4-carbamoylphenyl)methyl]-2-hexyl-2,3,4,9-tetrahydro-1H-carbazole-8-carboxylic acid] | 87.3 | 89.3
CCCCCCC1CCc2c(n(Cc3ccc(C#N)cc3)c3c(C(=O)O)cccc23)C1 (stereo not shown) [9-[(4-cyanophenyl)methyl]-2-hexyl-2,3,4,9-tetrahydro-1H-carbazole-8-carboxylic acid] | 39.7 | 78.9
CCCCC1CCCCc2c1c1cccc(C(=O)O)c1n2Cc1cccc(C(N)=O)c1 (stereo not shown) [10-butyl-5-[(3-carbamoylphenyl)methyl]-5H,6H,7H,8H,9H,10H-cyclohepta[b]indole-4-carboxylic acid] | 63.3 | 87.9
CCCCC1CCCCc2c1c1cccc(C(=O)O)c1n2Cc1cccc(C#N)c1 (stereo not shown) [10-butyl-5-[(3-cyanophenyl)methyl]-5H,6H,7H,8H,9H,10H-cyclohepta[b]indole-4-carboxylic acid] | 30.9 | 73.6

Source: patent publication US12084419B2, “Cell metabolism modulating compounds and uses thereof” (CRESCENTA BIOSCIENCES, priority 2020, dated 2024)
